The values that follow are results of earlier work, collected in patent US20240091240A1, “TREATMENTS FOR BLOOD-BRAIN BARRIER DYSFUNCTION AND RECURRENT SEIZURES USING NOX/LOX/COX INHIBITORS” (University of Kentucky Research Foundation, priority 2022, published 2024).

The series has as its system subjects suffering from seizures. Particulars: dosage of 5 mg/kg and 10 mg/kg.

With `CC1(C)Cc2c(-c3ccccc3)c(-c3ccc(Cl)cc3)c(CC(=O)O)n2C1` [licofelone], the brain capillary leakage entry was “reduce brain capillary leakage”.
